Laboratory results from patent US8545876B1, “Modified drugs for use in liposomal nanoparticles” (The University of British Columbia, priority 2008, dated 2013).
Converted amounts (≈) assume the structure as drawn.

Columns and labels:
[1] = cited from earlier work
[2] = tested on: breast cancer cell line MDA435/LCC6; assay: In vitro cytotoxicity, Alamar Blue assay; type: cell-based; details: Homo sapiens; MDA-MB-435/LCC6, 72-h drug exposure
Protocol: (§1) Anticancer activity was evaluated against a panel of 3 human cancer cell lines, including the ovarian cancer cell line ES-2, the prostate cancer cell line PC3 and the breast cancer cell line MDA435/LCC6 (BC Cancer Research Centre, Vancouver, BC) (Fields and Lancaster, Am. Biotechnol. Lab., 11:48-50 (1993); Nakayama et al., J. Immunol. Methods, 204:205-208 (1997)). Cytotoxicity was determined using the Alamar Blue assay after a 72-h drug exposure period. […] The plates were returned to the incubator for 4 h; sample fluorescence was determined at λex=530 nm and λem=590 nm. Viability was calculated according to: Cell viability (%)=(Fplus drug−Fbackground)/(Fminus drug−Fbackground)*100, where Fplus drug is the fluorescence reading in the presence of drug, Fminus drug the cell control in the absence of drug and Fbackground the background fluorescence (media alone).

[3] = tested on: ovarian cancer cell line ES-2; assay: In vitro cytotoxicity, Alamar Blue assay; type: cell-based; details: Homo sapiens; ES-2, 72-h drug exposure
Protocol: as §1

[4] = tested on: prostate cancer cell line PC3; assay: In vitro cytotoxicity, Alamar Blue assay; type: cell-based; details: Homo sapiens; PC-3, 72-h drug exposure
Protocol: as §1

[5] = Chemical (hydrolytic) stability in buffered aqueous solutions; type: physicochemical; details: 24 hour incubation in pH 4 buffer, 37° C.
Protocol: (§2) The chemical stability of the docetaxel derivatives was determined in aqueous solutions at different pH values and temperatures, and in biological media (mouse plasma). Aliquots of the docetaxel derivatives in acetonitrile were mixed with buffered citrate/HEPES (10 mM/10 mM) solutions at pH 4.0 and 7.5, or in mouse plasma in 1 mL glass HPLC sample vials sealed with Teflon-lined caps (final volume 0.25 ml, final docetaxel derivative concentration 50 µg/ml). Drug stability was determined 1, 4 and 24 hrs after incubation at 37° C. by UPLC-UV. At the indicated time points, a 3-fold excess of methanol/0.1% TFA was added to the sample. Citrate/HEPES buffered samples were analyzed by UHPLC as described above. For plasma samples, proteins precipitated by the addition of methanol/0.1% TFA pelleted by centrifugation at 14,000×g and supernatants were analyzed for the drug derivatives. Heparanized mouse plasma was diluted to 50% with 100 mM sodium-phosphate buffer to keep the pH constant throughout the experiment.
(§3) To be suitable for formulation in LN, derivatives must be stable at pH 4 (the pH present inside the LN carrier). In addition, prodrug derivatives should readily form the active drug under physiological conditions (e.g., at pH 7.4 and/or in the presence of endogenous enzymes) once released from the LN. […] TD1-3 and TD7 were selected for loading into LN and testing of such LN for drug release in vitro.

[6] = Stability in mouse plasma; type: in vitro ADME; details: 24 hour incubation in mouse plasma, 37° C.
Protocol: as §2, §3

[7] = In vitro release of docetaxel derivatives from LN in mouse plasma; type: in vitro ADME; details: 37° C., same prodrug-to-lipid ratio
Protocol: In vitro release of docetaxel derivatives from LN was assessed in mouse plasma. Drug retention was determined by comparison of the initial prodrug-to-lipid ratio with the prodrug-to-lipid ratios found at different time points. […] LN formulations were mixed with mouse plasma at a final lipid concentration of 0.75 mg/ml, followed by incubation at 37° C. At various time points, aliquots were taken and run over Sephadex G-50 spin columns to remove the unentrapped prodrug (Pick, Arch. Biochem. Biophys., 212:186-194 (1981)). The derivative and lipid concentrations in the eluates were determined by UHPLC and liquid scintillation counting, respectively.

[8] = Chemical (hydrolytic) stability in buffered aqueous solutions; type: physicochemical; details: 24 hour incubation in pH 7.4 buffer, 37° C.
[9] = Kinetic aqueous solubility of docetaxel derivatives in acetate buffer; details: for solubility: kinetic from dmso stock
Protocol: An aliquot was diluted 10-fold with 10 mM acetate buffer (pH 5) and the pH was checked and re-adjusted as necessary to reach pH 5. Alternatively, 10 mg of each compound was weighed into a glass vial, and 2 mL of 10 mM acetate buffer (pH 5) was added to the compound, followed by sonication of the suspension for minutes. The precipitate was then removed using Microcon MY100 filters (MW cut-off 100,000 Da) and the filtrate analyzed by UPLC-UV for drug content. The measured solubilities are kinetic solubilities determined under non-equilibrium conditions.

[10] = 10 mM acetate buffer with 10% (v/v) ethanol, pH 5, aqueous with cosolvent or surfactant or cyclodextrin
[11] = 10 mM acetate buffer, pH 5, aqueous buffer

| SMILES | Solubility in Water [1] | Prodrug levels (% remaining), pH 4 [5] [%] | Prodrug levels (% remaining), Plasma [6] | Prodrug levels (% remaining), pH 7.4 [8] [%] | further results |
| --- | --- | --- | --- | --- | --- |
| C[C@@H]1[C@H](O)[C@@H](C)/C=C/C=C/C=C/C=C/C=C/C=C/C=C/[C@H](O[C@@H]2O[C@H](C)[C@@H](O)[C@H](N)[C@@H]2O)C[C@@H]2O[C@](O)(C[C@@H](O)C[C@@H](O)[C@H](O)CC[C@@H](O)C[C@@H](O)CC(=O)O[C@H]1C)C[C@H](O)[C@H]2C(=O)O [Amphotericin B] | 750 µg/mL (≈ 812 µM) |  |  |  |  |
| CC(C)CN(C[C@@H](O)[C@H](Cc1ccccc1)NC(=O)O[C@H]1CCOC1)S(=O)(=O)c1ccc(N)cc1 [Amprenavir] | 36 µg/mL (≈ 71.2 µM) |  |  |  |  |
| C[C@@H]1C[C@H]2[C@@H]3CCC4=CC(=O)C=C[C@]4(C)[C@@]3(F)[C@@H](O)C[C@]2(C)[C@@]1(O)C(=O)CO [Dexamethasone] | 89 µg/mL (≈ 227 µM) |  |  |  |  |
| CC(=O)O[C@@]12CO[C@@H]1C[C@H](O)[C@@]1(C)C(=O)[C@H](O)C3=C(C)[C@@H](OC(=O)[C@H](O)[C@@H](NC(=O)OC(C)(C)C)c4ccccc4)C[C@@](O)([C@@H](OC(=O)c4ccccc4)[C@H]21)C3(C)C [Docetaxel, reference compound] |  |  |  |  | IC50 [2]: < 100 pM; IC50 [3]: 100 pM; IC50 [4]: 1000 pM |
| C=C1/C(=C\C=C2/CCC[C@]3(C)[C@@H]([C@H](C)/C=C/[C@H](C)C(C)C)CC[C@@H]23)C[C@@H](O)C[C@@H]1O [Doxercalciferol] | relatively insoluble |  |  |  |  |
| COc1c(C)c2c(c(O)c1C/C=C(\C)CCC(=O)O)C(=O)OC2 [Mycophenolic acid] | insoluble |  |  |  |  |
| C[C@H](/C=C/[C@H](C)C(C)(C)O)[C@H]1CC[C@H]2/C(=C/C=C3C[C@@H](O)C[C@H](O)C3)CCC[C@]12C [Paricalcitol] | 6.8 µg/mL (≈ 16.3 µM) |  |  |  |  |
| C[C@]12C=CC(=O)C=C1CC[C@@H]1[C@@H]2C(=O)C[C@@]2(C)[C@H]1CC[C@]2(O)C(=O)CO [Prednisone] | 312 µg/mL (≈ 870 µM) |  |  |  |  |
| CC(C)c1cccc(C(C)C)c1O [Propofol] | 124 µg/mL (≈ 696 µM) |  |  |  |  |
| CO[C@H]1C[C@@H]2CC[C@@H](C)[C@@](O)(O2)C(=O)C(=O)N2CCCC[C@H]2C(=O)O[C@H]([C@H](C)C[C@@H]2CC[C@@H](O)[C@H](OC)C2)CC(=O)[C@H](C)/C=C(\C)[C@@H](O)[C@@H](OC)C(=O)[C@H](C)C[C@H](C)/C=C/C=C/C=C/1C [Sirolimus] | insoluble in water |  |  |  |  |
| CC(=O)O[C@@]12CO[C@@H]1C[C@H](O)[C@@]1(C)C(=O)[C@H](O)C3=C(C)[C@@H](OC(=O)[C@H](OC(=O)CN4CCN(C)CC4)[C@@H](NC(=O)OC(C)(C)C)c4ccccc4)C[C@@](O)([C@@H](OC(=O)c4ccccc4)C12)C3(C)C (stereo partly drawn) [TD2, N-methyl-piperazinyl acetic acid ester] |  | 99 | 31% | 59 | in vitro retention / release rate in DSPC/chol LN relative to TD1 [7]: released at a slightly faster rate; solubility [9, 10]: 25000 µg/mL (≈ 26400 µM); solubility [9, 11]: 2000 µg/mL (≈ 2110 µM) |
| CC(=O)O[C@@]12CO[C@@H]1C[C@H](O)[C@@]1(C)C(=O)[C@H](O)C3=C(C)[C@@H](OC(=O)[C@H](OC(=O)CCCCN4CCN(C)CC4)[C@@H](NC(=O)OC(C)(C)C)c4ccccc4)C[C@@](O)([C@@H](OC(=O)c4ccccc4)C12)C3(C)C (stereo partly drawn) [TD3, N-methyl-piperazinyl pentanoic acid ester] |  | 99 | 29% | 69 | in vitro retention / release rate in DSPC/chol LN relative to TD1 [7]: released at a slightly faster rate; solubility [9, 10]: 4100 µg/mL (≈ 4140 µM); solubility [9, 11]: 2500 µg/mL (≈ 2520 µM) |
| CC(=O)O[C@@]12CO[C@@H]1C[C@H](O)[C@@]1(C)C(=O)[C@H](O)C3=C(C)[C@@H](OC(=O)[C@H](OC(=O)CCCN4CCOCC4)[C@@H](NC(=O)OC(C)(C)C)c4ccccc4)C[C@@](O)([C@@H](OC(=O)c4ccccc4)C12)C3(C)C (stereo partly drawn) [TD4, Morpholino butanoic acid ester] |  | 98 | 64% | 92 | solubility [9, 11]: 120 µg/mL (≈ 125 µM); Solub. in 10 mM acetate pH 5 ([9]; pH 5, no ethanol, kinetic solubility): extremely low solubility |
| CC(=O)O[C@@]12CO[C@@H]1C[C@H](O)[C@@]1(C)C(=O)[C@H](O)C3=C(C)[C@@H](OC(=O)[C@H](OC(=O)CN4CCOCC4)[C@@H](NC(=O)OC(C)(C)C)c4ccccc4)C[C@@](O)([C@@H](OC(=O)c4ccccc4)C12)C3(C)C (stereo partly drawn) [TD5, Morpholino acetic acid ester] |  | 81 | 45% | 64 | solubility [9, 10]: 300 µg/mL (≈ 321 µM); solubility [9, 11]: 140 µg/mL (≈ 150 µM) |
| CC(=O)O[C@@]12CO[C@@H]1C[C@H](O)[C@@]1(C)C(=O)[C@H](O)C3=C(C)[C@@H](OC(=O)[C@H](OC(=O)CCN4CCOCC4)[C@@H](NC(=O)OC(C)(C)C)c4ccccc4)C[C@@](O)([C@@H](OC(=O)c4ccccc4)C12)C3(C)C (stereo partly drawn) [TD6, Morpholino propionic acid ester] |  | 68 | 0% | 18 | solubility [9, 10]: 1500 µg/mL (≈ 1580 µM); solubility [9, 11]: 480 µg/mL (≈ 506 µM) |
| CC(=O)O[C@@]12CO[C@@H]1C[C@H](O)[C@@]1(C)C(=O)[C@H](O)C3=C(C)[C@@H](OC(=O)[C@H](OC(=O)CCCN4CCCCC4)[C@@H](NC(=O)OC(C)(C)C)c4ccccc4)C[C@@](O)([C@@H](OC(=O)c4ccccc4)C12)C3(C)C (stereo partly drawn) [TD7, Piperidinyl butanoic acid ester] |  | 94 | 8% | 13 | in vitro retention / release rate in DSPC/chol LN relative to TD1 [7]: released at a rate mirroring that of TD1; solubility ([9]; pH 5, aqueous buffer): 1900 µg/mL (≈ 1980 µM) |
| CC(=O)O[C@@]12CO[C@@H]1C[C@H](O)[C@@]1(C)C(=O)[C@H](O)C3=C(C)[C@@H](OC(=O)[C@H](OC(=O)CN4CCCCC4)[C@@H](NC(=O)OC(C)(C)C)c4ccccc4)C[C@@](O)([C@@H](OC(=O)c4ccccc4)C12)C3(C)C (stereo partly drawn) [TD8, Piperidinyl acetic acid ester] |  | 78 | 4% | 36 | solubility ([9]; pH 5, aqueous buffer): 500 µg/mL (≈ 536 µM) |
| CC(=O)O[C@@]12CO[C@@H]1C[C@H](O)[C@@]1(C)C(=O)[C@H](O)C3=C(C)[C@@H](OC(=O)[C@H](OC(=O)CCCCN4CCCCC4)[C@@H](NC(=O)OC(C)(C)C)c4ccccc4)C[C@@](O)([C@@H](OC(=O)c4ccccc4)C12)C3(C)C (stereo partly drawn) [TD9, Piperidinyl pentanoic acid ester] |  | 99 | no effect | 65 | Prodrug levels (% remaining), Plasma ([6]; listed as TD-9): 60%; solubility ([9]; pH 5, aqueous buffer): 1000 µg/mL (≈ 1030 µM); solubility ([9]; pH 5, aqueous with cosolvent or surfactant or cyclodextrin): 2300 µg/mL (≈ 2360 µM) |
| CC(=O)O[C@@]12CO[C@@H]1C[C@H](OC(=O)CCCN1CCN(C)CC1)[C@@]1(C)C(=O)[C@H](O)C3=C(C)[C@@H](OC(=O)[C@H](O)[C@@H](NC(=O)OC(C)(C)C)c4ccccc4)C[C@@](O)([C@@H](OC(=O)c4ccccc4)C12)C3(C)C (stereo partly drawn) [TD10, 7-O-(N-methyl-piperazinylbutanoic acid ester)] |  |  |  |  | solubility ([9]; pH 5, aqueous buffer): 3000 µg/mL (≈ 3070 µM) |
| C=CC[C@@H]1/C=C(\C)C[C@H](C)C[C@H](OC)[C@H]2O[C@@](O)(C(=O)C(=O)N3CCCC[C@H]3C(=O)O[C@H](/C(C)=C/[C@@H]3CC[C@@H](O)[C@H](OC)C3)[C@H](C)[C@@H](O)CC1=O)[C@H](C)C[C@@H]2OC [Tacrolimus] | insoluble |  |  |  |  |
| CCCCC(=O)OCC(=O)[C@]1(O)Cc2c(O)c3c(c(O)c2[C@@H](O[C@H]2C[C@H](NC(=O)C(F)(F)F)[C@H](O)[C@H](C)O2)C1)C(=O)c1c(OC)cccc1C3=O [Valrubicin] | insoluble |  |  |  |  |
